This is an account of results in ChEMBL document CHEMBL4825769, “Modulation of KRAS Mutant by Inhibiting PLK1 Kinase in Cancer Therapeutics” (ACS Med Chem Lett, 2021).

Structures are written as SMILES. A value given as a limit tells only on which side of the number the result lay.

The target of data set [1] is Serine/threonine-protein kinase PLK1 (Homo sapiens, UniProt P53350). The experiment in a line: Inhibition of human PLK1 incubated for 40 mins in presence of [gamma-33P]ATP by scintillation counting method.
In a further data set the target is Wee1-like protein kinase (Homo sapiens, UniProt P30291). The experiment in a line: Inhibition of human WEE1 using LSNLYHQGKFLQTFCGSPLYRRR peptide as substrate incubated for 40 mins in presence of [gamma-33P]ATP by scintillation counting method.
Data set [2] can be described thus: Oral bioavailability in CD-1 mouse at 10 mg/kg. Type of data set: ADME, organism-based. Particulars: in vivo.

Chain of Wee1-like protein kinase (P30291 whole entry): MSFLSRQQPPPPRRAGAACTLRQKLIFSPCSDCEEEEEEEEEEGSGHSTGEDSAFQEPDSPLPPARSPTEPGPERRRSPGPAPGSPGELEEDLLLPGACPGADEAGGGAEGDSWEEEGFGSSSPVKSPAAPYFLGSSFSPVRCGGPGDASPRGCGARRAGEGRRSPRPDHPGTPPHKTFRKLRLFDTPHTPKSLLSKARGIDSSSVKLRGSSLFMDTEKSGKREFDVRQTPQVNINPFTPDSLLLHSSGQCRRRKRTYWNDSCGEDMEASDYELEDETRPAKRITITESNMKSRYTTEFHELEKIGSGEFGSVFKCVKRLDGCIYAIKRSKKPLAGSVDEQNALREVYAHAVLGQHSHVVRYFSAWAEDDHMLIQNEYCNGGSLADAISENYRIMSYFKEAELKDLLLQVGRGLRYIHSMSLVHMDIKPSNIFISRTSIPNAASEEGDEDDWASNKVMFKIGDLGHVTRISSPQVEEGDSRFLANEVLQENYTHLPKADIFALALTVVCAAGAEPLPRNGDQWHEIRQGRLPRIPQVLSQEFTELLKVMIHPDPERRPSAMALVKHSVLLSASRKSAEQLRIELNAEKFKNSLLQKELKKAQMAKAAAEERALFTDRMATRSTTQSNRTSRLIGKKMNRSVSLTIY
Chain of Serine/threonine-protein kinase PLK1 (P53350 whole entry): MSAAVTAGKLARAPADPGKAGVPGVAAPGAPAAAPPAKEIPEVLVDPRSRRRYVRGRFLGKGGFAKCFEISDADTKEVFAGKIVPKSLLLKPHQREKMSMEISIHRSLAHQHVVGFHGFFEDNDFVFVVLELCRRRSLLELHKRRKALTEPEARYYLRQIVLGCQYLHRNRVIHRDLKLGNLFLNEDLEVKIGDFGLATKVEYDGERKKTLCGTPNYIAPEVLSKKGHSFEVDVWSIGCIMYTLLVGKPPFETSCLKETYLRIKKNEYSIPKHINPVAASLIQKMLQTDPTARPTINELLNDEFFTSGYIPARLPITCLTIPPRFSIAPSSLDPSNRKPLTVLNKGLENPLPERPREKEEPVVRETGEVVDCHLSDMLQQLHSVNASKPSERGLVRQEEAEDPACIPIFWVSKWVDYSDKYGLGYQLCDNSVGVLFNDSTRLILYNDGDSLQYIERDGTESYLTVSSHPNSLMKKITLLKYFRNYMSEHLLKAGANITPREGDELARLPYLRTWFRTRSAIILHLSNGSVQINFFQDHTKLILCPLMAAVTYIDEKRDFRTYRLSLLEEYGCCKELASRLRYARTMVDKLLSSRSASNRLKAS

By IC50 is commonly meant the concentration at which inhibition is half-maximal. In the case of `CC(C)(O)c1cccc(-n2cc(F)c3cnc(Nc4ccc(N5C[C@@H]6C[C@H]5CN6)cc4)nc32)n1`, the IC50 is 30 nM in data set [1] and 24 nM on Wee1-like protein kinase.

Consider `CN1CCN(c2ccc(Nc3ncc4c(F)cn(-c5cccc(C6(F)COC6)n5)c4n3)cc2)CC1`, for which the values for the IC50 (in data set [1]; at Wee1-like protein kinase) were 24 nM and 19 nM, respectively.

Turning to `CC(C)(O)c1cccc(-n2cc(F)c3cnc(Nc4ccc(C(=O)NC5CCOCC5)cc4)nc32)n1`, the IC50 in data set [1] came to 9 nM; on Wee1-like protein kinase it was 45 nM.

On to `CN1CCC(NC(=O)c2ccc(Nc3ncc4ccn(-c5cccc(C(C)(C)O)n5)c4n3)cc2)CC1`, for which the IC50 in data set [1] was 59 nM; on Wee1-like protein kinase, 33 nM.

With `CC(C)(O)c1cccc(-n2cc(F)c3cnc(Nc4ccc(N5CCNC6(CC6)C5)cc4)nc32)n1`, the IC50 in data set [1] amounted to 61 nM; at Wee1-like protein kinase, 63 nM.

As to `CN1CCC(NC(=O)c2ccc(Nc3ncc4c(F)cn(-c5cccc(C(C)(C)O)n5)c4n3)cc2)CC1`, the IC50 in data set [1] worked out at 29 nM; on Wee1-like protein kinase, 39 nM.

The bioavailability is dose-corrected exposure relative to a reference, in per cent. Low readings indicate little systemic uptake, high ones much systemic uptake. For `CN1CCN(c2ccc(Nc3ncc4c(F)cn(-c5cccc(N=S(C)(C)=O)n5)c4n3)cc2)CC1`, the IC50 amounted to 384 nM in data set [1] and 26 nM on Wee1-like protein kinase. Besides, the bioavailability in data set [2] is above 90%.

With `CCN1CCC(NC(=O)c2ccc(Nc3ncc4c(F)cn(-c5cccc(C(C)(C)O)n5)c4n3)cc2)CC1`, the figures for the IC50 (in data set [1]; on Wee1-like protein kinase) were 34 nM and 33 nM, respectively.

`CC(C)(O)c1cccc(-n2cc(F)c3cnc(Nc4ccc(NC(=O)C5CCOCC5)cc4)nc32)n1`: the IC50 is 30 nM in data set [1] and 52 nM at Wee1-like protein kinase.

Regarding `CCN1CCC(Oc2ccc(Nc3ncc4c(F)cn(-c5cccc(C(C)(C)O)n5)c4n3)cc2)CC1`, the IC50 in data set [1] stood at 39 nM; at Wee1-like protein kinase it was 19 nM.

With `CC(C)(O)c1cccc(-n2cc(F)c3cnc(Nc4ccc(N5C[C@H]6C[C@@H]5CN6)cc4)nc32)n1`, the results for the IC50 (in data set [1]; on Wee1-like protein kinase) were 19 nM and 21 nM, respectively.

For `CC(C)(O)c1cccc(-n2cc(F)c3cnc(Nc4ccc(N5CCNCC5)cc4)nc32)n1`, the IC50 in data set [1] turned out to be 60 nM; on Wee1-like protein kinase, 52 nM.
